Measured values taken from US7361743B2 (Pfizer Inc, priority 2004, dated 2008).
pIC50: −log10 of the molar value. In brackets after ≈: the same amount, converted by molar mass.

Legend:
[1] = test system: E. coli transcription/translation (bacterial protein synthesis, E. coli S30 extract); experiment: In vitro inhibition of E. coli transcription and translation assay (TT), cell-free; format: biochemical; conditions: for pIC50: cell-free E. coli S30 extract; for In vitro inhibition of E. coli transcription and translation compared with literature azepine compound VIII(18): cell-free TT assay, comparison in words
Experimental: Inhibition of bacterial protein synthesis was assayed in a cell-free E. coli transcription/translation assay.
Stock solutions of compounds were prepared at 10 mg/mL in DMSO. The assay contained less or equal to 1% (v/v) final concentration of DMSO. Three-fold serial dilutions were prepared in assay buffer at 6-fold final concentration in 96 well microtiter plate.
All vials, tubes and microtiter plates are RNase free. The Mix was freshly prepared with 10 μl H2O, 10 μl AA-M, 10 μl AA-L, 80 μl Premix and 50 μl ES30 extract. The assay was performed in a 96-well plate. Five microliters of compounds at various concentrations (6-fold final assay concentration) were preincubated with 20 μl of the mix for 5 min at room temperature. The reaction started with addition of 5 μl of plasmid (˜0.1 mg/mL pGEMBGAL), and kept at 37° C. for 1 h followed by the addition of 150 μl of OPNG solution (4 mg/mL OPNG in 0.1M NaPi, pH 7.5, 1 mM MgCl2 and 2 mM DTT). 150 μl of the reaction was transferred to a ½-area plate and increase in absorption at OD420 nm was monitored for 10 min using a Spectramax plate reader (Molecular Devices). The slope of absorption change over time is corresponding to the pathway activity.
The E. coli S30 Extract for circular DNA kit was purchased from Promega. Original plasmid pGEMBGAL was obtained from Promega and amplified via Maxiprep in house. 2-Nitrophenyl β-D-galactopyranoside was obtained from Sigma. Clindamycin HCl (USP) was purchased from Spectrum.
The inhibition are expressed as percent of control activity (without inhibitor) which is calculated according to equation (1): Inhibition %=(compound slope-blank slope)/(control slope-blank slope)*100 (1)
All IC50s were determined by fitting the experimental data to equation (2) using software DeltaGraph (DeltaPoint Inc.): Y=Y0/(1+(X/IC50)[…])+c (2)
Where Y: activity at given inhibitor concentration; Y0: activity without inhibitor; X: inhibitor concentration; d: slope; c: constant.
Lincosamides inhibit bacterial growth through binding to the bacterial 50S ribosome, thus inhibiting peptide bond formation. The transcription/translation assay provides a screening tool to measure inhibition of bacterial protein synthesis pathway at the target level without the complication of differences in membrane permeability.

[2] = test system: Haemophilus influenzae; experiment: Susceptibility testing, NCCLS microdilution MIC; format: cell-based; conditions: Haemophilus influenzae, ATCC31517; H. influenzae ATCC 31517; Example A′; read-out: MIC H. influenzae
[3] = test system: Enterococcus faecalis; experiment: Susceptibility testing, NCCLS microdilution MIC; format: cell-based; conditions: Enterococcus faecalis, ATCC29212; E. faecalis ATCC 29212; Example A′; read-out: MIC E. faecalis
[4] = test system: Bacteroides fragilis; experiment: Susceptibility testing, NCCLS microdilution MIC (anaerobe); format: cell-based; conditions: Bacteroides fragilis, ATCC25285; B. fragilis ATCC 25285; Example A′; read-out: MIC B. fragilis
[5] = test system: Staphylococcus aureus; experiment: Susceptibility testing, NCCLS microdilution MIC; format: cell-based; conditions: ATCC25923, S. aureus ATCC 25923, Example A′, read-out: MIC S. aureus

SMILES | pIC50 [1] | In vitro inhibition of E. coli transcription and translation compared with literature azepine compound VIII(18) [1] | MIC [2] | MIC [3] | MIC [4] | MIC [5]
CS[C@H]1O[C@H]([C@H](NC(=O)C2CC[C@H](CCCCO)CCN2)[C@H](C)Cl)[C@H](O)[C@H](O)[C@H]1O (stereo in doubt) [Example 1′, 5-(4-Hydroxy-butyl)-azepane-2-carboxylic acid [2-chloro-1-(3,4,5-trihydroxy-6-methylsulfanyl-tetrahydro-pyran-2-yl)-propyl]-amide] | 6.28 | markedly superior | 0.5 µg/mL (≈ 1.07 µM) | 1 µg/mL (≈ 2.13 µM) | 8 µg/mL (≈ 17.1 µM) | 0.25 µg/mL (≈ 0.533 µM)
CS[C@H]1O[C@H]([C@H](NC(=O)C2CC[C@H](CCCO)CCN2)[C@H](C)Cl)[C@H](O)[C@H](O)[C@H]1O (stereo in doubt) [Example 2′, 5-(3-Hydroxy-propyl)-azepane-2-carboxylic acid [2-chloro-1-(3,4,5-trihydroxy-6-methylsulfanyl-tetrahydro-pyran-2-yl)-propyl]-amide] | 6.40 | markedly superior | 0.5 µg/mL (≈ 1.1 µM) | 1 µg/mL (≈ 2.2 µM) | 4 µg/mL (≈ 8.79 µM) | 0.5 µg/mL (≈ 1.1 µM)
CS[C@H]1O[C@H]([C@H](NC(=O)C2CC[C@H](CCCCC#N)CCN2)[C@H](C)Cl)[C@H](O)[C@H](O)[C@H]1O (stereo in doubt) [Example 8′, 5-(4-Cyano-butyl)-azepane-2-carboxylic acid [2-chloro-1-(3,4,5-trihydroxy-6-methylsulfanyl-tetrahydro-pyran-2-yl)-propyl]-amide] | 6.72 | markedly superior | 0.5 µg/mL (≈ 1.05 µM) | 0.06 µg/mL (≈ 0.126 µM) | 1 µg/mL (≈ 2.09 µM) | 0.125 µg/mL (≈ 0.261 µM)
CS[C@H]1O[C@H]([C@H](NC(=O)C2CC[C@H](CCCn3ccnn3)CCN2)[C@H](C)Cl)[C@H](O)[C@H](O)[C@H]1O (stereo in doubt) [Example 9′, 5-(3-[1,2,3]Triazol-1-yl-propyl)-azepane-2-carboxylic acid [2-chloro-1-(3,4,5-trihydroxy-6-methylsulfanyl-tetrahydro-pyran-2-yl)-propyl]-amide] | 6.55 | markedly superior | 2 µg/mL (≈ 3.95 µM) | 4 µg/mL (≈ 7.9 µM) | > 8 µg/mL | 0.5 µg/mL (≈ 0.988 µM)
CS[C@H]1O[C@H]([C@H](NC(=O)[C@@H]2CC[C@H](CCC(F)F)CCN2)[C@H](C)Cl)[C@H](O)[C@H](O)[C@H]1O [Example 10′, 5-(3,3-Difluoro-propyl)-azepane-2-carboxylic acid [2-chloro-1-(3,4,5-trihydroxy-6-methylsulfanyl-tetrahydro-pyran-2-yl)-propyl]-amide] | 6.28 | markedly superior | 0.5 µg/mL (≈ 1.05 µM) | 0.125 µg/mL (≈ 0.263 µM) | 1 µg/mL (≈ 2.11 µM) | 0.06 µg/mL (≈ 0.126 µM)
CS[C@H]1O[C@H]([C@H](NC(=O)[C@@H]2CC[C@H](CCCC(F)F)CCN2)[C@H](C)Cl)[C@H](O)[C@H](O)[C@H]1O [Example 11′, 5-(4,4-Difluoro-butyl)-azepane-2-carboxylic acid [2-chloro-1-(3,4,5-trihydroxy-6-methylsulfanyl-tetrahydro-pyran-2-yl)-propyl]-amide] | 6.60 | markedly superior | 0.25 µg/mL (≈ 0.511 µM) | 0.06 µg/mL (≈ 0.123 µM) | 1 µg/mL (≈ 2.04 µM) | 0.06 µg/mL (≈ 0.123 µM)
COCCCC[C@@H]1CCN[C@H](C(=O)N[C@@H]([C@H]2O[C@H](SC)[C@H](O)[C@@H](O)[C@H]2O)[C@H](C)Cl)CC1 [Example 12′, 5-(4-Methoxy-butyl)-azepane-2-carboxylic acid [2-chloro-1-(3,4,5-trihydroxy-6-methylsulfanyl-tetrahydro-pyran-2-yl)-propyl]-amide] | 6.54 | markedly superior | 0.5 µg/mL (≈ 1.04 µM) | 0.5 µg/mL (≈ 1.04 µM) | 2 µg/mL (≈ 4.14 µM) | 0.06 µg/mL (≈ 0.124 µM)
